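Abbreviation: GI50, concentration required for 50% inhibition of growth. TGI marks complete inhibition of growth.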
Key:
Assay in all cases: DTP human tumour cell line panel, 384-well format
[1] = system: 786-0 renal
[2] = system: A498 renal
[3] = system: A549 NSCLC
[4] = system: ACHN renal
[5] = system: BT-549 breast
[6] = system: CAKI-1 renal
[7] = system: CCRF-CEM leukemia
[8] = system: COLO 205 colon
[9] = system: DU-145 prostate
[10] = system: EKVX NSCLC
[11] = system: HCC-2998 colon
[12] = system: HCT-15 colon
[13] = system: HL-60(TB) leukemia
[14] = system: HOP-62 NSCLC
[15] = system: HOP-92 NSCLC
[16] = system: HS 578T breast
[17] = system: HT29 colon
[18] = system: IGROV1 ovarian
[19] = system: K-562 leukemia
[20] = system: KM12 colon
[21] = system: LOX IMVI melanoma
[22] = system: M14 melanoma
[23] = system: MALME-3M melanoma
[24] = system: MCF7 breast
[25] = system: MDA-MB-231 breast
[26] = system: MDA-MB-435 melanoma
[27] = system: MDA-MB-468 breast
[28] = system: MOLT-4 leukemia
[29] = system: NCI-H226 lung
[30] = system: NCI-H23 lung
[31] = system: NCI-H322M lung
[32] = system: NCI-H460 NSCLC
[33] = system: NCI-H522 lung
[34] = system: NCI/ADR-RES ovarian
[35] = system: OVCAR-3 ovarian
[36] = system: OVCAR-4 ovarian
[37] = system: OVCAR-5 ovarian
[38] = system: OVCAR-8 ovarian
[39] = system: PC-3 prostate
[40] = system: RPMI-8226 leukemia
[41] = system: RXF 393 renal
[42] = system: SF-268 CNS
[43] = system: SF-295 CNS
[44] = system: SF-539 CNS
[45] = system: SK-MEL-28 melanoma
[46] = system: SK-MEL-5 melanoma
[47] = system: SK-OV-3 ovarian
[48] = system: SN12C renal
[49] = system: SNB-19 CNS
[50] = system: SNB-75 CNS
[51] = system: SR leukemia
[52] = system: SW-620 colon
[53] = system: T-47D breast
[54] = system: TK-10 renal
[55] = system: U251 glioblastoma
[56] = system: UACC-257 melanoma
[57] = system: UACC-62 melanoma
[58] = system: UO-31 renal
[59] = system: HCT-116 colon

C[C@@H]1COC(Nc2ccc3ncnc(Nc4ccc(OCc5nccs5)c(Cl)c4)c3c2)=N1
GI50 [1]: 4.26 µM
TGI [1]: 16.9 µM
GI50 [2]: 4.31 µM
TGI [2]: 19 µM
GI50 [3]: 4.91 µM
TGI [3]: 19.8 µM
GI50 [4]: 0.563 µM
TGI [4]: 17.4 µM
GI50 [5]: 3.81 µM
TGI [5]: 12.2 µM
GI50 [6]: 1.81 µM
TGI [6]: 14.8 µM
GI50 [7]: 3.44 µM
TGI [7]: 8.53 µM
GI50 [8]: 6.44 µM
TGI [8]: 19 µM
GI50 [9]: 3.22 µM
TGI [9]: 17.6 µM
GI50 [10]: 0.332 µM
TGI [10]: 11.4 µM
GI50 [11]: 12.3 µM
TGI [11]: 26.7 µM
GI50 [12]: 5.44 µM
TGI [12]: 21.5 µM
GI50 [13]: 3.82 µM
TGI [13]: 8.05 µM
GI50 [14]: 4.22 µM
TGI [14]: 15 µM
GI50 [15]: 3.25 µM
TGI [15]: 17 µM
GI50 [16]: 4.71 µM
TGI [16]: 15.6 µM
GI50 [17]: 6.33 µM
TGI [17]: 19.9 µM
GI50 [18]: 0.335 µM
TGI [18]: 2.13 µM
GI50 [19]: 4.48 µM
TGI [19]: 16.6 µM
GI50 [20]: 5.6 µM
TGI [20]: 18.8 µM
GI50 [21]: 3.25 µM
TGI [21]: 11.6 µM
GI50 [22]: 6.3 µM
TGI [22]: 18.3 µM
GI50 [23]: 3.43 µM
TGI [23]: 11.4 µM
GI50 [24]: 5.96 µM
TGI [24]: 21.2 µM
GI50 [25]: 9.67 µM
TGI [25]: 22.8 µM
GI50 [26]: 11.8 µM
TGI [26]: 24.7 µM
GI50 [27]: 0.137 µM
TGI [27]: 0.342 µM
GI50 [28]: 1.85 µM
TGI [28]: 3.59 µM
GI50 [29]: 1.66 µM
TGI [29]: 5.47 µM
GI50 [30]: 7.4 µM
TGI [30]: 26.3 µM
GI50 [31]: 0.337 µM
TGI [31]: 12.9 µM
GI50 [32]: 3.71 µM
TGI [32]: 12.8 µM
GI50 [33]: 0.539 µM
TGI [33]: 2.66 µM
GI50 [34]: 2.39 µM
TGI [34]: 6.92 µM
GI50 [35]: 1.83 µM
TGI [35]: 7.84 µM
GI50 [36]: 2.32 µM
TGI [36]: 14.8 µM
GI50 [37]: 6.68 µM
TGI [37]: 28.2 µM
GI50 [38]: 3.12 µM
TGI [38]: 12.4 µM
GI50 [39]: 5.36 µM
TGI [39]: 17 µM
GI50 [40]: 3.48 µM
TGI [40]: 11 µM
GI50 [41]: 5.8 µM
TGI [41]: 18.7 µM
GI50 [42]: 9.55 µM
TGI [42]: 23.5 µM
GI50 [43]: 13 µM
TGI [43]: 26.2 µM
GI50 [44]: 12.3 µM
TGI [44]: 24.8 µM
GI50 [45]: 4.88 µM
TGI [45]: 17.2 µM
GI50 [46]: 1.77 µM
TGI [46]: 4.21 µM
GI50 [47]: 2.2 µM
TGI [47]: 12.5 µM
GI50 [48]: 2.78 µM
TGI [48]: 16.1 µM
GI50 [49]: 11.1 µM
TGI [49]: 24.5 µM
GI50 [50]: 13.5 µM
TGI [50]: 28.2 µM
GI50 [51]: 7.27 µM
TGI [51]: 20.5 µM
GI50 [52]: 19 µM
TGI [52]: 35.7 µM
GI50 [53]: 0.641 µM
TGI [53]: 4.52 µM
GI50 [54]: 1.48 µM
TGI [54]: 17.9 µM
GI50 [55]: 10.7 µM
TGI [55]: 22.8 µM
GI50 [56]: 9.37 µM
TGI [56]: 21.2 µM
GI50 [57]: 4.25 µM
TGI [57]: 16.2 µM
GI50 [58]: 10.9 µM
TGI [58]: 23.6 µM

Cc1ccccc1C(C(=O)NC1CCCCC1)N(C(=O)Cn1ccnc1C)c1cccc(F)c1 (configuration not stated)
GI50 [1]: > 100 µM
TGI [1]: > 100 µM
GI50 [2]: 66.6 µM
TGI [2]: > 100 µM
GI50 [3]: > 100 µM
TGI [3]: > 100 µM
GI50 [4]: > 100 µM
TGI [4]: > 100 µM
GI50 [5]: > 100 µM
TGI [5]: > 100 µM
GI50 [6]: > 100 µM
TGI [6]: > 100 µM
GI50 [7]: > 100 µM
TGI [7]: > 100 µM
GI50 [8]: > 100 µM
TGI [8]: > 100 µM
GI50 [9]: > 100 µM
TGI [9]: > 100 µM
GI50 [10]: > 100 µM
TGI [10]: > 100 µM
GI50 [11]: > 100 µM
TGI [11]: > 100 µM
GI50 [59]: > 100 µM
TGI [59]: > 100 µM
GI50 [12]: > 100 µM
TGI [12]: > 100 µM
GI50 [13]: > 100 µM
TGI [13]: > 100 µM
GI50 [14]: > 100 µM
TGI [14]: > 100 µM
GI50 [15]: 77.4 µM
TGI [15]: > 100 µM
GI50 [16]: 27.4 µM
TGI [16]: 83 µM
GI50 [17]: > 100 µM
TGI [17]: > 100 µM
GI50 [18]: > 100 µM
TGI [18]: > 100 µM
GI50 [19]: > 100 µM
TGI [19]: > 100 µM
GI50 [20]: > 100 µM
TGI [20]: > 100 µM
GI50 [21]: 52.7 µM
TGI [21]: > 100 µM
GI50 [22]: > 100 µM
TGI [22]: > 100 µM
GI50 [23]: > 100 µM
TGI [23]: > 100 µM
GI50 [24]: > 100 µM
TGI [24]: > 100 µM
GI50 [25]: 51.1 µM
TGI [25]: > 100 µM
GI50 [26]: > 100 µM
TGI [26]: > 100 µM
GI50 [27]: > 100 µM
TGI [27]: > 100 µM
GI50 [28]: > 100 µM
TGI [28]: > 100 µM
GI50 [29]: > 100 µM
TGI [29]: > 100 µM
GI50 [30]: > 100 µM
TGI [30]: > 100 µM
GI50 [31]: > 100 µM
TGI [31]: > 100 µM
GI50 [32]: > 100 µM
TGI [32]: > 100 µM
GI50 [33]: > 100 µM
TGI [33]: > 100 µM
GI50 [34]: > 100 µM
TGI [34]: > 100 µM
GI50 [35]: > 100 µM
TGI [35]: > 100 µM
GI50 [36]: > 100 µM
TGI [36]: > 100 µM
GI50 [38]: 75.6 µM
TGI [38]: > 100 µM
GI50 [39]: > 100 µM
TGI [39]: > 100 µM
GI50 [40]: > 100 µM
TGI [40]: > 100 µM
GI50 [41]: 20.5 µM
TGI [41]: 96.6 µM
GI50 [42]: > 100 µM
TGI [42]: > 100 µM
GI50 [43]: 30 µM
TGI [43]: > 100 µM
GI50 [44]: 36.2 µM
TGI [44]: > 100 µM
GI50 [45]: > 100 µM
TGI [45]: > 100 µM
GI50 [46]: > 100 µM
TGI [46]: > 100 µM
GI50 [47]: > 100 µM
TGI [47]: > 100 µM
GI50 [48]: > 100 µM
TGI [48]: > 100 µM
GI50 [49]: > 100 µM
TGI [49]: > 100 µM
GI50 [50]: 26.8 µM
TGI [50]: > 100 µM
GI50 [51]: 20 µM
TGI [51]: 86.6 µM
GI50 [52]: > 100 µM
TGI [52]: > 100 µM
GI50 [53]: 24.5 µM
TGI [53]: > 100 µM
GI50 [54]: 49.2 µM
TGI [54]: > 100 µM
GI50 [55]: > 100 µM
TGI [55]: > 100 µM
GI50 [56]: > 100 µM
TGI [56]: > 100 µM
GI50 [57]: > 100 µM
TGI [57]: > 100 µM
GI50 [58]: > 100 µM
TGI [58]: > 100 µM

Reference: PubChem BioAssay (NCI)
